# Experiments:
# [1] = molecular target: T1, Leucine-rich repeat serine/threonine-protein kinase 2 (Homo sapiens, UniProt Q5S007, G2019S); assay: Binding affinity to human GST tagged truncated LRRK2 G2019S mutant incubated for 2 hrs by TR-FRET based Lanthascreen kinase activity assay
# [2] = molecular target: T2, Leucine-rich repeat serine/threonine-protein kinase 2 (Homo sapiens, UniProt Q5S007); assay: Inhibition of recombinant human LRRK2 WT using fluorescein-labeled LRRKtide as substrate in presence of ATP preincubated for 50 mins followed by anti-phospho-LRRKtide antibody addition and measured after 30 mins by TR-FRET based Lanthascreen kinase activity assay
# [3] = molecular target: T2, Leucine-rich repeat serine/threonine-protein kinase 2; assay: Binding affinity to human LRRK2 WT incubated for 2 hrs by TR-FRET based Lanthascreen kinase activity assay
# [4] = molecular target: T1, Leucine-rich repeat serine/threonine-protein kinase 2; assay: Inhibition of recombinant human GST tagged truncated LRRK2 G2019S mutant using fluorescein-labeled LRRKtide as substrate in presence of ATP preincubated for 50 mins followed by anti-phospho-LRRKtide antibody addition and measured after 30 mins by TR-FRET based Lanthascreen kinase activity assay
# [5] = molecular target: T1, Leucine-rich repeat serine/threonine-protein kinase 2; assay: Inhibition of LRRK2-pSer935 in LRRK2 G2019S mutant expressing human HEK293 cells and measured after 48 hrs by ICW assay; assay type: cell-based
# [6] = molecular target: T2, Leucine-rich repeat serine/threonine-protein kinase 2; assay: Inhibition of LRRK2-pSer935 in LRRK2 WT expressing human HEK293 cells and measured after 48 hrs by ICW assay; assay type: cell-based
# [7] = Aqueous solubility of the compound; assay type: physicochemical; settings: buffer
# [8] = molecular target: Proto-oncogene tyrosine-protein kinase receptor Ret (Homo sapiens) (UniProt P07949); assay: Inhibition of RET (unknown origin) assessed as remaining activity using botin-anti-his and Lanthascreen Eu-streptavidin measured at 1 uM incubated for 2 hrs by TR-FRET based Lanthascreen kinase activity assay relative to control
# [9] = molecular target: T3, NUAK family SNF1-like kinase 1 (Homo sapiens) (UniProt O60285); assay: Inhibition of ARK5 (unknown origin) assessed as remaining activity using botin-anti-his and Lanthascreen Eu-streptavidin at 1 uM incubated for 2 hrs by TR-FRET based Lanthascreen kinase activity assay relative to control
# T3 sequence (whole entry): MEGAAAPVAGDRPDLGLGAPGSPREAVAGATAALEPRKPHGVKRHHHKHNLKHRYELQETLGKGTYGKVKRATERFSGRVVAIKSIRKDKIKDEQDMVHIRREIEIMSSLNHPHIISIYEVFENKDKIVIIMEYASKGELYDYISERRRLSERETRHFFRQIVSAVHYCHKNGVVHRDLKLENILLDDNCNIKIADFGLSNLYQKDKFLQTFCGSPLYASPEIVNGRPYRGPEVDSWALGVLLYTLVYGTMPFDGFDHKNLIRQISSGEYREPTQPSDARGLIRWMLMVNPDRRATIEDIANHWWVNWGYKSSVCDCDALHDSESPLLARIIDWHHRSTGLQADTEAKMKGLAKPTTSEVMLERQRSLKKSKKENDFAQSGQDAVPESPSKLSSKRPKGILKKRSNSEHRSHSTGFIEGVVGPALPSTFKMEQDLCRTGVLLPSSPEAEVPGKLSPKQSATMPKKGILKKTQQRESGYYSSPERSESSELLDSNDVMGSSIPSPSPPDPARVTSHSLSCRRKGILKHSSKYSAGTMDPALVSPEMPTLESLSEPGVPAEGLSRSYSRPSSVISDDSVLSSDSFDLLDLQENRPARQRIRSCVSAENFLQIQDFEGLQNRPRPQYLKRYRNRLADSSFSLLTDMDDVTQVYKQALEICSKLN
# Sequence of Proto-oncogene tyrosine-protein kinase receptor Ret (Homo sapiens) (P07949 whole entry): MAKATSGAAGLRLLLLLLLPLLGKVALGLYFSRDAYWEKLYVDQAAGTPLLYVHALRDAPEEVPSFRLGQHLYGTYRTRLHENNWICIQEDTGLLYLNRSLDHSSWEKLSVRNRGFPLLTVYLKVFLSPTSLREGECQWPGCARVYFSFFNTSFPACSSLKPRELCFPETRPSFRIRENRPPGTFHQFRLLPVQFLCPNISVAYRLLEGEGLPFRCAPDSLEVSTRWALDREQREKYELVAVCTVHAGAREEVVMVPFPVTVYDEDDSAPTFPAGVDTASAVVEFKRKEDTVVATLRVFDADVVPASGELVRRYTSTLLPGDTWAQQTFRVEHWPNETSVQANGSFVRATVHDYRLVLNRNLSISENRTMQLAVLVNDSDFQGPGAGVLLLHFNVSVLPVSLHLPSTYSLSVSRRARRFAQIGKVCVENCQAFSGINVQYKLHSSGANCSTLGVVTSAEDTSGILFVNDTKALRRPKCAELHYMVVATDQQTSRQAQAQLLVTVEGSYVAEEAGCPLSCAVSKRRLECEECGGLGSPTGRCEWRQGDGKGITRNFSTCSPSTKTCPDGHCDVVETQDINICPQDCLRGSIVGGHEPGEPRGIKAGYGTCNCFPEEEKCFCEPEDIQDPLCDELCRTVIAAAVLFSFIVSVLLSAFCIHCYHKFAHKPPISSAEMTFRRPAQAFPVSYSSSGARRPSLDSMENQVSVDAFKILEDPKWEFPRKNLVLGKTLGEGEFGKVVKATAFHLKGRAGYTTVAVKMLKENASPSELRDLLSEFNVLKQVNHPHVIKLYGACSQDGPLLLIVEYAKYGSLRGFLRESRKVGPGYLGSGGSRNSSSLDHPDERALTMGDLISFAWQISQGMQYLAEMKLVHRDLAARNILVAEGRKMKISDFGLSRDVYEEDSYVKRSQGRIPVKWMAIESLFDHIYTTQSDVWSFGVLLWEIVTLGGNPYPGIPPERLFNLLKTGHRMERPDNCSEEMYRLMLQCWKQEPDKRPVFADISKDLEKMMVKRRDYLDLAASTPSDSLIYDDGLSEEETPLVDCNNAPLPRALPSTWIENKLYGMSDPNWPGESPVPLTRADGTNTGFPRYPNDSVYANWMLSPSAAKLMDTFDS
# T1 sequence (Q5S007 whole entry G2019S, the tested form may be a part): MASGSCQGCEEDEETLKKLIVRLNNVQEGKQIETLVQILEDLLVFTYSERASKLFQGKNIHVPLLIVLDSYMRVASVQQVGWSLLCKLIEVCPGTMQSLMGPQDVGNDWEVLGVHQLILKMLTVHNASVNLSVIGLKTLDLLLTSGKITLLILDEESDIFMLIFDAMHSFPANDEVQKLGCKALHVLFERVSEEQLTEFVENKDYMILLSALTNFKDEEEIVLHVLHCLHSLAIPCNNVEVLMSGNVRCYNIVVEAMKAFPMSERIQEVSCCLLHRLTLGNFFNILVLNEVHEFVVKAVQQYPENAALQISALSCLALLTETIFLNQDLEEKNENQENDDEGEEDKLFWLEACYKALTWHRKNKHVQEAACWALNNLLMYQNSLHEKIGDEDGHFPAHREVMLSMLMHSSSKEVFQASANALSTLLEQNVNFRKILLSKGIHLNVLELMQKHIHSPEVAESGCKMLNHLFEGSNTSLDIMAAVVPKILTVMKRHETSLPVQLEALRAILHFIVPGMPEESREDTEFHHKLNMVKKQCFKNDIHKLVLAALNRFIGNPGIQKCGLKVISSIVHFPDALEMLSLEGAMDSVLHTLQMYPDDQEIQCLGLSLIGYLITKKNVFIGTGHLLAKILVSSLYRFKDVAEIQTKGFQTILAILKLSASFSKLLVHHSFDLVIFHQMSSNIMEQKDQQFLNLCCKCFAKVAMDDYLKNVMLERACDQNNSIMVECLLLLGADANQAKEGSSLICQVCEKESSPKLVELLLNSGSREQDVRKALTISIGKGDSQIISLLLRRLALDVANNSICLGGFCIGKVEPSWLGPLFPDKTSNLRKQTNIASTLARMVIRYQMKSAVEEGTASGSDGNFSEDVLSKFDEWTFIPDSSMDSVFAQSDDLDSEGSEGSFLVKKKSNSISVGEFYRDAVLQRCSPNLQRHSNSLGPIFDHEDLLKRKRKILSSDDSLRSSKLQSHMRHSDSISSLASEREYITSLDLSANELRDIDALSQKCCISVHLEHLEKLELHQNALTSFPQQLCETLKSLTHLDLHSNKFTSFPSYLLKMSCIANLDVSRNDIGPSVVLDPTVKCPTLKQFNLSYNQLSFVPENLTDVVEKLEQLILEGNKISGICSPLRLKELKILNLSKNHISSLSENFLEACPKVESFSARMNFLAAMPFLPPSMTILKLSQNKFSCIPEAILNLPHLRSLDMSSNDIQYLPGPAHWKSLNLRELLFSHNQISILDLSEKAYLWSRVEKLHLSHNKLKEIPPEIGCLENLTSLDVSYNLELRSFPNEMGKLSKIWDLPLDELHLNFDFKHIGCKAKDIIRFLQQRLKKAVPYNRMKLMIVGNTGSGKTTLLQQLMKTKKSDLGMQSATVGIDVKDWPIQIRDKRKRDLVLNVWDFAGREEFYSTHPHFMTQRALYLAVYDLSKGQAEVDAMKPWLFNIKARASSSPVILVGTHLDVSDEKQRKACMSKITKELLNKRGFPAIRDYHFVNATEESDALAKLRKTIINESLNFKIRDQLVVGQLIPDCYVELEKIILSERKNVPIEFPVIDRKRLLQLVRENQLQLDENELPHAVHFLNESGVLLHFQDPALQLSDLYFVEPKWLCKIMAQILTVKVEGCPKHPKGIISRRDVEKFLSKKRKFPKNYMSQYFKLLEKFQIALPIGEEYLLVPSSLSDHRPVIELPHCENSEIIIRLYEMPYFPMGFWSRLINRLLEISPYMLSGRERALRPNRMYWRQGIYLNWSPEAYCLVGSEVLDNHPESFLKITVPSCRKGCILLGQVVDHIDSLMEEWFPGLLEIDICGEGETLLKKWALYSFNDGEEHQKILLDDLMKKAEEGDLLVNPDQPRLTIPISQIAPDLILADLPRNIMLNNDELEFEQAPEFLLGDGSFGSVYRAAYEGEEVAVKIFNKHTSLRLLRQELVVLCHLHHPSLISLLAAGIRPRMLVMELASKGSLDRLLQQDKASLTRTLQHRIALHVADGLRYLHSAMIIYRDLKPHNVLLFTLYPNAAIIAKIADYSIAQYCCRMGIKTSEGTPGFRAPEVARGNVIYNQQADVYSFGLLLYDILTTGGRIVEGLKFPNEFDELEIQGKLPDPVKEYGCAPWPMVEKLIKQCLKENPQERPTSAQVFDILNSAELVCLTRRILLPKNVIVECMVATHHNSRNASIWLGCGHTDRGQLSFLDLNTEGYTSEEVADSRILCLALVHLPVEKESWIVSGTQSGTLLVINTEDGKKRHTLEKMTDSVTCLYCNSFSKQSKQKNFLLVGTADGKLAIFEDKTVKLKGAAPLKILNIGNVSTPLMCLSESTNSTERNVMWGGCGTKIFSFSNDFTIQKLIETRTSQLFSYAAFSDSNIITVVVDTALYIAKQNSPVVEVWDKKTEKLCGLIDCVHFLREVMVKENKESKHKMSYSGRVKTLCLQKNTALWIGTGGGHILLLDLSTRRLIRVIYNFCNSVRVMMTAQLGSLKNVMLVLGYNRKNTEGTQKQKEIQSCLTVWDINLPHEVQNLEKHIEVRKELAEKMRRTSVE
# T2 sequence (Q5S007 whole entry): as the sequence (Q5S007 whole entry G2019S, the tested form may be a part) above, with S2019G counted along it
SMILES,Ki [1],IC50 [2],Ki [3],IC50 [4],IC50 [5],IC50 [6],solubility [7],Activity [8],Activity [9]
Cn1c(N)c(C#N)c2c(N)ncnc21,589 nM,14400 nM,346 nM,8560 nM,,,,,
C[C@H]1CCCN1c1c(C#N)c2c(N)ncnc2n1C,212 nM,5660 nM,136 nM,3080 nM,,,,,
Cc1nn(CC(C)(C)O)cc1Nc1nc(N)c2c(C#N)c(N3CCC[C@H]3C)n(C)c2n1,,49 nM,,42 nM,180 nM,280 nM,,,
Cn1c(-n2cccc2)c(C#N)c2c(N)ncnc21,1980 nM,,239 nM,,,,Insoluble,,
Cn1c(NCc2ccccc2)c(C#N)c2c(N)ncnc21,243 nM,,423 nM,3530 nM,,,,,
Cc1cn(C)nc1Nc1cc2c(c(N)n1)c(C#N)c(N1CCC[C@H]1C)n2C,75 nM,2110 nM,63 nM,1290 nM,,,,8%,-7%
C[C@@H]1CCCN1c1cc2c(N)ncnc2n1C,439 nM,6830 nM,164 nM,6390 nM,,,,,
C[C@@H]1CCCN1c1c(C#N)c2c(N)nc(Nc3cnn(C)c3)nc2n1C,0.3 nM,6 nM,0.1 nM,5 nM,,,,103%,91%
Cc1c(Nc2nc(N)c3c(C#N)c(N4CCC[C@H]4C)n(C)c3n2)cnn1C1COC1,,47 nM,,37 nM,190 nM,300 nM,,,
C[C@@H]1CCCN1c1c(C#N)c2c(N)nc(Nc3cn(C)nc3C(F)(F)F)nc2n1C,,508 nM,,358 nM,460 nM,910 nM,,,
C[C@@H]1CCCN1c1c(C#N)c2c(N)nc(Nc3cn(C)nc3Cl)nc2n1C,,34 nM,,21 nM,54 nM,190 nM,,,
C[C@@H]1CCCN1c1c(C(N)=O)c2c(N)ncnc2n1C,154 nM,3190 nM,77 nM,2240 nM,,,,,
Cn1c(N2CCCC2)c(C#N)c2c(N)ncnc21,125 nM,1480 nM,41 nM,1910 nM,,,,,
Cn1c(NCc2ccccc2F)c(C#N)c2c(N)ncnc21,120 nM,6060 nM,145 nM,1740 nM,,,,,
C[C@@H]1CCCN1c1c(C#N)c2c(N)nc(Nc3cn[nH]c3)nc2n1C,0.4 nM,6 nM,0.2 nM,6 nM,,,,101%,97%
Cn1c(-c2cccc(F)c2F)c(C#N)c2c(N)ncnc21,11 nM,572 nM,14 nM,159 nM,,,,,
Nc1ncnc2nc[nH]c12 [ADENINE],6720 nM,,,15800 nM,,,,,
Cc1c(Nc2nc(N)c3c(C#N)c(N4CCC[C@H]4C)n(C)c3n2)cnn1CC1(O)COC1,,16 nM,,10 nM,120 nM,220 nM,,,

SMILES,Ki [1],IC50 [2],Ki [3],IC50 [4],IC50 [5],IC50 [6],solubility [7],Activity [8],Activity [9]
C[C@@H]1CCCN1c1c(C#N)c2c(N)nc(N)nc2n1C,13 nM,248 nM,6 nM,217 nM,,,,,
Cc1nn(CC2(O)COC2)cc1Nc1nc(N)c2c(C#N)c(N3CCC[C@H]3C)n(C)c2n1,,57 nM,,51 nM,250 nM,410 nM,,,
Cn1c(-c2ccccc2)c(C#N)c2c(N)ncnc21,33 nM,1260 nM,30 nM,483 nM,,,,,
Cc1nn(C)cc1Nc1nc(N)c2c(C#N)c(N3CCC[C@H]3C)n(C)c2n1,2 nM,38 nM,1 nM,30 nM,120 nM,190 nM,,,
CN(C)c1ncnc2nc[nH]c12 [DIMETHYLADENINE],1420 nM,,,3350 nM,,,,,
C[C@@H]1CCCN1c1c(C#N)c2c(N)nc(Nc3ccn(C)n3)cc2n1C,13 nM,234 nM,6 nM,206 nM,,,,27%,3%
Cc1nn(C2COC2)cc1Nc1nc(N)c2c(C#N)c(N3CCC[C@H]3C)n(C)c2n1,,38 nM,,25 nM,140 nM,240 nM,,,
C[C@@H]1CCCN1c1c(C#N)c2c(N)nc(Nc3cnn(C)c3)cc2n1C,794 nM,,538 nM,,,,,,
Nc1ncnc2[nH]ncc12,11300 nM,,,26600 nM,,,,,
C[C@@H]1CCCN1c1c(C#N)c2c(N)nccc2n1C,2 nM,34 nM,0.8 nM,28 nM,,,,37%,65%
Cc1c(Nc2nc(N)c3c(C#N)c(N4CCC[C@H]4C)n(C)c3n2)cnn1C,3 nM,75 nM,2 nM,43 nM,260 nM,310 nM,,,
"Cc1nn(C2CCOC2)cc1Nc1nc(N)c2c(C#N)c(N3CCC[C@H]3C)n(C)c2n1 (single isomer, unassigned)",,44 nM,,28 nM,180 nM,260 nM,,,
Cc1n[nH]cc1Nc1nc(N)c2c(C#N)c(N3CCC[C@H]3C)n(C)c2n1,2 nM,42 nM,1 nM,27 nM,,,,8%,-5%
C[C@@H]1CCCN1c1c(C#N)c2c(N)ncnc2n1C,0.7 nM,15 nM,0.4 nM,11 nM,,,,64%,93%
Cc1c(Nc2nc(N)c3c(C#N)c(N4CCC[C@H]4C)n(C)c3n2)cnn1CC(C)(C)O,,43 nM,,35 nM,120 nM,280 nM,,,
Cc1nn(C2CCOC2)cc1Nc1nc(N)c2c(C#N)c(N3CCC[C@H]3C)n(C)c2n1 (mixture of isomers),,19 nM,,12 nM,65 nM,140 nM,,,
C[C@@H]1CCCN1c1[nH]c2ncnc(N)c2c1C#N,14 nM,166 nM,4 nM,201 nM,,,,,
CN(C)c1c(C#N)c2c(N)ncnc2n1C,259 nM,4620 nM,111 nM,3760 nM,,,,,

# From ChEMBL document CHEMBL5038598, “Design and Synthesis of Pyrrolo[2,3-d]pyrimidine-Derived Leucine-Rich Repeat Kinase 2 (LRRK2) Inhibitors Using a Checkpoint Kinase 1 (CHK1)-Derived Crystallographic Surrogate” (J Med Chem, 2021)
